The values that follow come from PMC9303812, “Asymmetrically Substituted m‐Terphenyl Phosphates Inhibit the Transcription Factor STAT5a” (Chembiochem, 2021).

One data set addresses T1, STAT6 (Homo sapiens, UniProt P42226).
T1 sequence (P42226 1-847): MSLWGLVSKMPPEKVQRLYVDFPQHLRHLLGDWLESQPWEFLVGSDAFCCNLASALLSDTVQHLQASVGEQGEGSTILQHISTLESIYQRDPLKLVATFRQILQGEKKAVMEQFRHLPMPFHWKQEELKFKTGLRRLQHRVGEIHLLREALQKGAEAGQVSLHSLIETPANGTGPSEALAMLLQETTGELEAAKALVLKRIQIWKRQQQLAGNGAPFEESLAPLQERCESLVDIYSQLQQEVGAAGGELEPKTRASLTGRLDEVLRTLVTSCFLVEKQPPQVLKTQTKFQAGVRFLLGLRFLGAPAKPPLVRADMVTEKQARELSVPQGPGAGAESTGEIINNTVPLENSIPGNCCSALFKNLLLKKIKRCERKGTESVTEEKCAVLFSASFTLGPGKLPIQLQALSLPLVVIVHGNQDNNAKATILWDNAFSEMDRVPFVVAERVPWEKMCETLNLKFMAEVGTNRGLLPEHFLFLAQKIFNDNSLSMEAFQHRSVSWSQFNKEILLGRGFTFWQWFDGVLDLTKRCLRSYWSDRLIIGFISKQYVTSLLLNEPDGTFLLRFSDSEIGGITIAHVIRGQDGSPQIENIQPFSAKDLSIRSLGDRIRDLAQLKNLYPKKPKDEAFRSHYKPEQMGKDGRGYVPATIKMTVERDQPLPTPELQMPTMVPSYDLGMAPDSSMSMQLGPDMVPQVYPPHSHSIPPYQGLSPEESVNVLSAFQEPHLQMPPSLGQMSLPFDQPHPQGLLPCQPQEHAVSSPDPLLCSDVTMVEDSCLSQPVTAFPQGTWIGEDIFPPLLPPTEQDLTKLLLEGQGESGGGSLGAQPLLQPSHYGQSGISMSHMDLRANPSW
Kind of data set: Fluorescence polarization (FP) binding assay, STAT6. As for the experimental part: Ki values were calculated from IC50 values using the published equation.[2] […]
Table S2: Activities of 12 against STAT5 proteins in FP assays.
Fluorescence polarization assays
Fluorescence polarization assays were essentially carried out as previously described.[1] These assays quantitate to which extent a test compound is able to interfere with binding between a STAT protein and a fluorescein-labeled phosphotyrosine-containing peptide, which is known to bind to the SH2 domain of the respective STAT protein. The following protein […]
concentrations were used: 100 nM for STAT1, 150 nM for STAT3, 30 nM for STAT4, 180 nM for STAT5a, 90 nM for STAT5b and 105 nM for STAT6. All peptides were used at a concentration of 10 nM. The following peptides were used: 5 -carboxyfluorescein -GpYDKPHVL for STAT1; 5-carboxyfluorescein -GpYLPQTV-NH2 for STAT3; 5-carboxyfluorescein-GpYLPQNID-OH for STAT4; 5-carboxyfluorescein-GpYLVLDKW for STAT5a/b, and 5-carboxyfluorescein-GpYVPWQDLI-OH for STAT6. As a buffer system, 10 mM Tris (pH 8.0), 50 mM NaCl, 1 mM EDTA, 1 mM DTT, 0.1 % Nonidet P-40 substitute, and 2 % DMSO in water was used. All compounds tested were incubated for 1 h with the protein. Subsequently, the fluorescein-labeled peptide was added and the fluorescence polarization was measured with an Infinite F500 plate reader (Tecan) after another hour. IC50 values were converted to Ki-values using the published equation.[2] […]
3:2 solution was added . The solution was degassed by applying ultrasonic under vacuum for one minute four times. 14 mg of Pd(PPh3)4 (12 µmol, 5 mol %) were added and the solution was refluxed overnight. After cooling down, the mixture was extracted with ethyl acetate, washed with brine and dried over Na2SO4. The crude product was purified by flash column […]
Method 2: Synthesis of dibenzylphosphate esters
The corresponding phenol (1 eq.) was dissolved in 10 ml/mmol MeCN or DMF and CCl4 (5 eq.), DIPEA (2 eq.) and DMAP (0.1 eq.) were added. After cooling down to 0°C, dibenzyl phosphite (1.5 eq.) was added dropwise and stirring was continued at the same temperature. […]
A general note: Fluorescence polarisation rises when a labelled molecule tumbles more slowly, as on binding a larger partner.

Broadly, the inhibition is the percentage by which the read-out fell short of the control. A word on the melting point: it is the temperature of the solid-liquid transition. A word on the IC50: it is the point on the concentration scale where inhibition reaches its midpoint. As usually defined, the Ki is a measure of affinity in units of concentration, obtained from inhibition or displacement.

The molecule `COc1cc(-c2cc(OP(=O)(O)O)cc(-c3cc(F)c(F)c(F)c3)c2)cc(OC)c1OC` [6 b] registered a melting point of more than 260 °C. For the same molecule, the inhibition at 200 µM at STAT6 (read-out: STAT6 inhibition at 200 μM) was 39 ± 1%.
In the case of `COc1cc(-c2cc(-c3cc(F)c(F)c(F)c3)cc(C(F)P(=O)(O)O)c2)cc(OC)c1OC` (stereo not shown) [compound 12], the IC50 on STAT6 (FP assay) was 144 ± 2.8 µM. Besides, the inhibitory constant (Ki) at STAT6 (FP assay, Ki calculated from IC50 (n=3)) was 71.5 ± 1.4 µM.
